# Experimental data from article PMC7143967, “Extensive Therapeutic Drug Monitoring of Colistin in Critically Ill Patients Reveals Undetected Risks” (Microorganisms, 2020).
# Bridge positions count the residues as written; N and C are the ends. Square brackets hold non-standard residues; d marks the D form. Peptide text beside a SMILES is read from it. * marks the point of attachment. X1 = CC[C@H](C)CCCCC(=O)*; Dab = NCC[C@H](N)C(=O)O
# Tests used:
# [1] = system: carbapenem resistant A. baumannii (CRAB); assay: Clinical/microbiological outcome of CMS/Colistin treatment; type: in vivo, human (critically ill ICU patients)
# Experimental: Microbiology testing was performed by the university’s Department of Microbiology. Samples included regular swab testing for screening purposes (nasal, inguinal, anal, tracheal) and specific testing of blood cultures, wound samples for detection of tissue infection, bronchoalveolar lavage (BAL) fluid and urine.
# [2] = cited from earlier work; for elimination by prolonged intermittent RRT: ref Schmidt et al. [24]
# Excerpt: Colistin was isolated from Bacillus polymyxa subsp. colistinus and consists of a cyclic heptapeptide and a tripeptide side chain acetylated at the N-terminus by a fatty acid moiety. Earlier commercially available Colistin consisted of a mixture of several chemically related subcomponents, including the two major components Colistin A and Colistin B, with a known, concentration-dependent (nephro-, neuro-, oto-) toxicity. […] Following par ... || While CMS is excreted primarily via the kidneys, Colistin elimination pathways remain unclear. […] We were able to calculate elimination half-life for Colistin in 6 out of 8 patients. In our cohort, elimination half-time was greatly extended to a mean of 22.0 h (Figure 2A). […] Subsequently CRRT became necessary due to sustained renal failu ...
# clinical = type: in vivo, human (critically ill ICU patients); settings: for t1/2 of Colistin: first-order fit
# Experimental: (§1) Blood samples were immediately centrifuged and refrigerated.
# While CMS is excreted primarily via the kidneys, Colistin elimination pathways remain unclear. […] We were able to calculate elimination half-life for Colistin in 6 out of 8 patients. In our cohort, elimination half-time was greatly extended to a mean of 22.0 h (Figure 2A). The individual half-life kinetics, including details on curve fitting, are provided in the Supplementary Materials (Supplementary Materials “Elimination half times of Colistin” Figures S1–S6). Individual elimination kinetics followed a first-order kinetic. In one patient (Patient 2), we established CRRT in the midst of the elimination time course. This allowed us to forward project kinetics without CRRT and backwards interpolate kinetics with CRRT. […] The amount of available CMS relevantly impacts upon Colistin levels, since CMS acts as a pro-drug. Thus, elimination of CMS is key to reduce Colistin plasma levels whereas CMS accumulation is the source for Colistin build up. CMS elimination can be rapidly affected by changes of renal function and distribution volume. CMS trough levels might indicate potential accumulation of CMS and subsequent accumulation of Colistin. This is of potential relevance when renal CMS elimination might be impaired.
# Extensive Therapeutic Drug Monitoring Of
# Supplemental material 1 – elimination half times of Colistin
# Figure S1: plasma levels of Colistin after cessation of CMS administration. (A) linear
# scaling of colistin plasma levels in [mg/L]; fit of an 1st decay elimination curve, y =
# 1,5111e-0,029x, R2= 0.97, p<0.001; (B) linear scaling colistin plasma levels in [mg/L] after
# (also on this page, place not known: 1 st Colistin [mg/L] ln (Colistin [mg/L]) time [h] time [h] (A) (B))
# (1 picture or pasted object on this page, not shown here)
# [3] = Therapeutic drug monitoring of CMS and Colistin plasma levels by HPLC-MS/MS
# Experimental: Eight critically ill patients, some of them under renal replacement therapy (continuous venovenous hemodialysis (CVVHD), intermittent HD (IHD)), infected with gram negative MDR pathogens were treated with CMS. Daily measurements of serum creatinine levels and estimation of glomerular filtration rate using the CKD-EPI Creatinine (eGFR CKD-EPI) equation [16] were used to monitor renal function. Samples were collected multiple times daily prior to/after every dose of CMS for trough/peak level determination of CMS and Colistin. After termination of the Colistin treatment course, samples were derived from the individual patient, to ensure complete and timely removal of Colistin. Blood samples were immediately centrifuged and refrigerated. The plasma was frozen and kept at −20 °C until analysis. After analysis samples were kept at −80 °C for long term storage.
# We aimed for target Colistin serum levels of >2 mg/L in patients suffering from A. baumannii infection alone, or >4 mg/L in patients with singular Pseudomonas infections or combined infections. Dosing was done with or without a loading dose of 6–9 million international units (IU) Colistin and subsequent doses of either 3 × 2 million IU/day, 3 × 3 million IU/day, 3 × 4 million IU or 2 × 4.5 million IU, as indicated.
# A total of 50 μL of plasma samples, calibrators and controls were precipitated with 200 μL of ice cold isopropanol containing 0.5 μg/mL polymyxin B as internal standard and 0.02% TFA. After 10 min at −20 °C, centrifuging 5 min with 20,000 g at 4 °C, 100 μL of the supernatant was diluted with 400 μL of the appropriate solvent (water or 30% DMSO in water respectively) and put into the auto sampler at 4 °C. LC-MS/MS system: Dionex UltiMate 3000 XRS autosampler, XRS quaternary UHPLC pump, RS Column compartment. Column used: Aeris Peptide 1.7 μm XB-C18 2.1 × 100 mm (Phenomenex), 40 °C. Mobile phases: Gradient starting with 19% lcms-grade acetonitrile (Baker) and 0.05% TFA (Sigma) in water (Milli-Q) to 40% within 1.6 min at a flow rate of 500 μL/min. Mass spectrometer: TSQ-Vantage triple quad mass spectrometer (Thermo Fisher Scientific, San Jose, CA, USA), HESI-source, positive electrospray ionization mode, settings: ionization voltage 3500 V, vaporizer temperature 500 °C, sheath gas flow 40 (arb), auxiliary gas flow 15 (arb), capillary temperature 200 °C and declustering voltage 10 V. For multiple reaction monitoring (MRM), argon was used as collision gas at a pressure of 1.1 × 10^−3 Torr. Doubly charged parent ions of Colistins (578.5/100.9, 585.4/100.9) and polymyxin B (602.4/100.9) were used for fragmentation and the product ions and collision energies have been optimized for best intensities. A detailed procedure protocol including description of standardization, sample preparation, sample stability etc., is available upon request.
# [4] = set-up: species or system human (critically ill ICU patients); settings: in vivo
# Excerpt: as §1
compound,measurement,setting,value
CC[C@H](C)CCCCC(=O)N[C@@H](CCN)C(=O)N[C@H](C(=O)N[C@@H](CCN)C(=O)N[C@H]1CCNC(=O)[C@H]([C@@H](C)O)NC(=O)[C@H](CCN)NC(=O)[C@H](CCN)NC(=O)[C@H](CC(C)C)NC(=O)[C@@H](CC(C)C)NC(=O)[C@H](CCN)NC1=O)[C@@H](C)O [Colistin] (X1-[Dab]T[Dab][Dab][Dab][dL]L[Dab][Dab]T; lactam 4-C),result of treatment,"[1]; Patient 1, CRAB wound infection, 3 × 3 million IU CMS, 7 days, colonization persisted",eradication of the CRAB wound infection was achieved
same,result of treatment,"[1]; Patient 2, CRAB bloodstream, wound and pulmonary infection, colonization and pulmonary infection remained",cured the bloodstream infection
same,result of treatment,"[1]; Patient 6, first treatment cycle, bloodstream and pulmonary CRAB infection",bloodstream infection was cured but colonization persisted
same,elimination by prolonged intermittent RRT,[2],up to 50%
same,t1/2 of Colistin,"clinical; Patient 1, eGFR 119 mL/min/1.73m^2, RRT none, R2 = 0.97",23.6 h
same,t1/2 of Colistin,"clinical; Patient 2, eGFR 27 mL/min/1.73m^2, RRT none, R2 = 0.99",23.43 h
same,t1/2 of Colistin,"clinical; Patient 4, eGFR 58 mL/min/1.73m^2, RRT CVVHDF, R2 = 0.996",19.5 h
same,t1/2 of Colistin,"clinical; Patient 5, eGFR 59 mL/min/1.73m^2, RRT IHD, R2 = 0.98",16.5 h
same,t1/2 of Colistin,"clinical; Patient 6, eGFR 99 mL/min/1.73m^2, RRT CVVHDF, R2 = 0.91",30.9 h
same,t1/2 of Colistin,"clinical; Patient 8, eGFR 51 mL/min/1.73m^2, RRT IHD, R2 = 0.999",17.9 h
same,half-life,"clinical; human, in vivo, mean of 6 out of 8 patients, plasma after end of CMS treatment, first-order kinetic, read-out: elimination half-time of Colistin, mean (converted)",22 h
same,time to Colistin levels >2 mg/L after dose increase,"[3]; Patient 2, dose increased from 3 × 2 to 3 × 4 million IU",48 h
same,time to sufficient Colistin levels,"[3]; Patient 4, loading dose 9 million IU, then 3 × 3 million IU CMS daily, target 4 mg/L",eight
same,"time to target Css,avg of ~4 mg/L after dose increase","[3]; Patient 4, under CVVHDF, 3 × 4 million IU per day",four
same,time to Colistin plasma levels between 3–4 mg/L,"[3]; Patient 6, second treatment cycle, loading dose 9 million IU, then 3 million IU CMS three times a day",8 to 16 h
same,time to target Colistin plasma levels,"[3]; Patient 7, second treatment cycle, loading dose 9 million IU, 4.5 million IU twice daily, CVVHDF",three
same,accumulation in plasma,"[3]; Patient 8, IHD-adjusted dosing with loading dose of 9 million IU, CMS stopped after 3 days",rapid accumulation
same,level at 48 h,"[3]; human, in vivo",> 2000 ng/mL
same,level at 96 h,"[3]; human, in vivo",~4000 ng/mL
same,level at 720 h,"[3]; human, in vivo",< 2000 ng/mL
same,mean Colistin peak level,"[3]; plasma, sampled 30 min after CMS injection, all patients pooled, mean (±SD), n = 383, HPLC-MS/MS, unit not given","3.5 (±1.3, n = 383)"
same,mean Colistin trough level,"[3]; plasma, sampled immediately prior to CMS injection, all patients pooled, mean (±SD), n = 386, HPLC-MS/MS, unit not given","3.45 (±1.3, n = 386)"
Colistin methanosulfate [CMS],result of treatment,"[1]; Patient 3, CRAB bloodstream and wound infection, after dose increase to 3 × 4 million IU",eradication of both bloodstream and wound infection
same,result of treatment,"[1]; Patient 4, in combination with surgical focus eradication, MDR Pseudomonas infection and colonization persisted",the CRAB infection was eliminated
same,result of treatment,"[1]; Patient 5, 3 × 4 million IU, colonization with CRAB persisted",successfully eradicated CRAB from the bloodstream and from pulmonary samples
same,result of treatment,"[1]; Patient 6, second treatment cycle, recurrent CRAB bloodstream infection, blood stream samples",eradication of CRAB within 3 days of treatment
same,result of treatment,"[1]; Patient 7, first treatment cycle, 6 days of CMS",successful eradication of CRAB from wound samples
same,result of treatment,"[1]; Patient 7, second treatment cycle, 4.5 million IU twice daily, resistant colonization remained",the bloodstream infection was successfully eradicated
same,portion of CMS undergoing renal excretion,[2],about two thirds
same,elimination by prolonged intermittent RRT,[2],up to 50%
same,renal function (eGFR) under treatment,[4],gradual decline of renal function
same,mean CMS trough level,[3]; in vivo,1.6 mg/L
same,mean CMS peak level,"[3]; plasma, sampled 30 min after CMS injection, all patients pooled, mean (±SD), n = 381, HPLC-MS/MS, unit not given","8.7 (±4.1, n = 381)"
